Literature values as cited in patent publication US5399700A, “Method for preparing enteric-coated oral drugs containing acid-unstable compounds” (Sunkyong Industries Co., Ltd., priority 1991, dated 1995).
Where two headings read alike, the source gives them in different places.

Experiments:
[1] = Table 9
[2] = not given; remark: listed apart in the source

## CC(C)CN [Isobutylamine]
[1]
  pKa: 10.42

## CCCN [Propylamine]
[1]
  pKa: 10.57

## CC(C)(C)N [Tert-butylamine]
[1]
  pKa: 10.87

## CCCCN(CCCC)CCCC [Tributylamine]
[1]
  pKa: 10.87

## COc1ccc2[nH]c([S+]([O-])Cc3ncc(C)c(OC)c3C)nc2c1 (stereo not shown) [omeprazole]
Medium of below pH 4
  half-life: 0.167 h
pH 6.8
  half-life: 18 h
pH 11
  half-life: about 300 days

## OC[C@H]1O[C@@H]2O[C@H]3[C@H](O)[C@@H](O)[C@@H](O[C@H]4[C@H](O)[C@@H](O)[C@@H](O[C@H]5[C@H](O)[C@@H](O)[C@@H](O[C@H]6[C@H](O)[C@@H](O)[C@@H](O[C@H]7[C@H](O)[C@@H](O)[C@@H](O[C@H]1[C@H](O)[C@H]2O)O[C@@H]7CO)O[C@@H]6CO)O[C@@H]5CO)O[C@@H]4CO)O[C@@H]3CO [α-CD, α-cyclodextrin]
[2]; 1n hcl
  Ring-opening Half-life: 6.2 h

## OC[C@H]1O[C@@H]2O[C@H]3[C@H](O)[C@@H](O)[C@@H](O[C@H]4[C@H](O)[C@@H](O)[C@@H](O[C@H]5[C@H](O)[C@@H](O)[C@@H](O[C@H]6[C@H](O)[C@@H](O)[C@@H](O[C@H]7[C@H](O)[C@@H](O)[C@@H](O[C@H]8[C@H](O)[C@@H](O)[C@@H](O[C@H]1[C@H](O)[C@H]2O)O[C@@H]8CO)O[C@@H]7CO)O[C@@H]6CO)O[C@@H]5CO)O[C@@H]4CO)O[C@@H]3CO [β-CD, β-cyclodextrin]
[2]; 60° C., 1N HCl
  Ring-opening Half-life: 5.4 h

## OC[C@H]1O[C@@H]2O[C@H]3[C@H](O)[C@@H](O)[C@@H](O[C@H]4[C@H](O)[C@@H](O)[C@@H](O[C@H]5[C@H](O)[C@@H](O)[C@@H](O[C@H]6[C@H](O)[C@@H](O)[C@@H](O[C@H]7[C@H](O)[C@@H](O)[C@@H](O[C@H]8[C@H](O)[C@@H](O)[C@@H](O[C@H]9[C@H](O)[C@@H](O)[C@@H](O[C@H]1[C@H](O)[C@H]2O)O[C@@H]9CO)O[C@@H]8CO)O[C@@H]7CO)O[C@@H]6CO)O[C@@H]5CO)O[C@@H]4CO)O[C@@H]3CO [γ-CD]
[2]; 60° C., 1N HCl
  Ring-opening Half-life: 3.0 h
